How the values were obtained:
[1] = Perfume stabilization effect (sequestering agent combination); design: key to Sunlight exposure (80 MJ) Smell evaluation: A: No change; B: No almost change; C: Yes change
Method: Next, for combinations with sequestering agent, photostabilization effect for each perfume was studied by the following evaluation formulation.
Each test sample was prepared. Smell change of samples exposed to sunlight (80 MJ) was observed (judgement by perfumier).

[2] = Pigment stabilization effect (sequestering agent combination); design: key to Sunlight exposure (80 MJ) Appearance: A: No change; B: No almost change; C: Yes change; key to Sunlight exposure (80 MJ) ΔE: color difference ΔE in Lab space vs. color before sunlight exposure; conditions: photostabilizer 0, amounts wt %
Method: First of all, the photostabilization effect and appearance changes of a composition for each pigment were studied by the following evaluation formulation.
Each test sample was prepared. Observation of appearance changes (visual evaluation) and measurement of color difference (ΔE) were carried out for samples exposed to sunlight (around 80 MJ).
Color difference was measured by Lab coordinate system with spectrophotometer. Color difference was calculated based on the color before sunlight exposure. Namely, from the measured value (L1,a1,b1) before sunlight exposure, color difference (ΔE) was calculated by following formula.

[3] = colorant Green No. 3 0.0001, sequestering agent 0.03 alone
[4] = colorant Red No. 106 0.0001, sequestering agent 0.02 alone
[5] = colorant Red No. 401 0.001, sequestering agent 0.1 alone
[6] = colorant Yellow No. 5 0.001, sequestering agent 0.02 alone

Row | Compound | Sunlight exposure (80 MJ) Smell evaluation [1] | Sunlight exposure (80 MJ) Appearance [2, 3] | Sunlight exposure (80 MJ) ΔE [2, 3] | Sunlight exposure (80 MJ) Appearance [2, 4] | Sunlight exposure (80 MJ) ΔE [2, 4] | Sunlight exposure (80 MJ) Appearance [2, 5] | Sunlight exposure (80 MJ) ΔE [2, 5] | Sunlight exposure (80 MJ) Appearance [2, 6] | Sunlight exposure (80 MJ) ΔE [2, 6]
1 | O=C([O-])CNCCN(CC(=O)[O-])CC(=O)[O-].[Na+].[Na+].[Na+] [Trisodium ethylenediamine triacetate] | C | – | – | – | – | – | – | – | –
2 | Sodium polyphosphate | – | C | 2.1 | C | 2.92 | C | 7.14 | C | 1.75
